Test results published in ChEMBL document CHEMBL5647693, “Molecular basis underlying resistance to Mps1/TTK inhibitors” (Oncogene, 2016).
pIC50: −log10 of the molar value.

How the values were obtained:
Assay in all cases: cells
Type in all cases: functional, cell-based
HCT-116 [1] = conditions: Homo sapiens, HCT-116, 120 h
HeLa [2] = conditions: Homo sapiens, 120 h
HCT-116 [3] = conditions: Homo sapiens, HCT-116, 120 h; remark: listed apart in the source
U2OS = conditions: Homo sapiens, 120 h
HCT-116 [4] = conditions: Homo sapiens, HCT-116, 120 h; remark: listed apart in the source
DLD-1 [5] = conditions: Homo sapiens, DLD-1, 120 h
DLD-1 [6] = conditions: Homo sapiens, DLD-1, 120 h; remark: listed apart in the source
HeLa [7] = conditions: Homo sapiens, 120 h; remark: listed apart in the source
DLD-1 [8] = conditions: Homo sapiens, DLD-1, 120 h; remark: listed apart in the source
HCT-116 [9] = conditions: Homo sapiens, HCT-116, 120 h; remark: listed apart in the source
HeLa [10] = conditions: Homo sapiens, 120 h; remark: listed apart in the source
HeLa [11] = conditions: Homo sapiens, 120 h; remark: listed apart in the source

Compound | pIC50 (HCT-116 [1]) | pIC50 (HeLa [2]) | pIC50 (HCT-116 [3]) | pIC50 (U2OS) | pIC50 (HCT-116 [4]) | pIC50 (DLD-1 [5]) | pIC50 (DLD-1 [6]) | pIC50 (HeLa [7]) | pIC50 (DLD-1 [8]) | pIC50 (HCT-116 [9]) | pIC50 (HeLa [10]) | pIC50 (HeLa [11])
Cc1cc(N2CCOCC2)ccc1Nc1nc(NC2CCCCC2)c2nc[nH]c2n1 | 6.80 | 6.55 | 7.20 | 6.98 | < 5.70 | 6.74 | 7.12 | 6.33 | < 5.70 | 5.97 | < 5.70 | < 5.70
c1nc2c(NC3CCCCC3)nc(Nc3ccc(N4CCOCC4)cc3)nc2[nH]1 [REVERSINE] | 6.86 | 6.54 | 7.10 | 6.81 | 7.15 | 6.87 | 6.92 | 6.37 | < 5.70 | 6.28 | 6.94 | 6.90
COc1cc(N2CCC(O)CC2)ccc1Nc1nc(Nc2ccccc2S(=O)(=O)C(C)C)c2nc[nH]c2n1 | 5.79 | 5.47 | – | – | 5.27 | 5.62 | – | 5.32 | 5.10 | 5.49 | 5.05 | 5.17
